We go through two molecules from article PMC11546719, “Immune Modulatory Profile of the Pateamines PatA and Des-Methyl Des-Amino PatA” (International Journal of Molecular Sciences, 2024).

Data set [1] has as its system B cells, T cells, M1 MdMs, M2 MdMs. In words: Immune cell viability, formazan-based assay. Details: species or system human. The following applies: 48 h. As for the experimental part: nitrogen, and the residue dissolved in 50 µl methanol. The analysis was performed with an Agilent 1290 Inﬁnity LC system (Agilent, Waldbronn, Germany) coupled to a hybrid triple quadrupole linear ion trap mass spectrometer QTRAP 6500+ (Sciex, Darmstadt, Ger-many) equipped with a Turbo-V-source operating in positive electrospray ionization mode. The chromatographic separation was carried out using an Acquity UPLC BEH C18 column (100x 2.1 mm, 1.7 µm; Waters, Eschborn, Deutschland), maintained at 40 °C. Mobile Phase A was 0.1% formic acid with 20 mM ammonium formate and mobile Phase B was meth-anol with 0.1% formic acid with 20 mM ammonium formate. A gradient program was em-ployed at a flow rate of 400 µl/min, as follows: initial 20% B to 0.5 min, increasing to 90% B from 0.5 to 4.5 min, with a hold time of 1.0 min. Re-equilibration was performed by reducing to 20% B from 5.5 to 5.6 min, and then holding at 20% B until 7.0 min.
For analysis and quantiﬁcation of all compounds, Analyst Software 1.7.1 and Multi-quant Software 3.0.3 (both Sciex, Darmstadt, Germany) were used. The precursor-to-prod-uct ion transitions used for quantiﬁcation were: m/z 237.1 → m/z 194.1 for carbamazepine, […]
482.2 for DMDA, and […]. […]
Supplementary Figure S1. […] Viability was determined by a formazan-based assay. […]

For data set [2], the system named is M1 MdMs. The data set is described as follows: Energy metabolism (Seahorse OCR/ECAR) in M1 MdMs. It is filed as cell-based, human. To be noted: 48 h, 0.5-5 nM. Here is the method:
The determination of the energy metabolism was performed as described previously. Briefly, for the analysis of the extracellular acidification rate (ECAR) and the oxygen consumption rate (OCR) for human B cells, Tcells, M1 MdMs and M2 MdMs, the Seahorse XFe96 FluxPak (Agilent, Waldbronn, Germany) was used as recommended by the manufacturer. MdMs were polarized to M1 or M2 MdMs in the presence of PatA (0.5, 2.5, 5 nM), DMDA (0.5, 2.5, 5 nM) or vehicle (DMSO) for 48 h or 24 h, respectively. T cells were activated in the presence of PatA (0.25, 0.5 nM), DMDA (0.25, 0.5 nM), silvestrol or DMSO. B cells were activated in the presence of PatA (0.25, 0.5 nM), DMDA (0.25, 0.5 nM), silvestrol (5 nM) or rapamycin (10 ng/mL positive control). Cells were washed with Seahorse XF RPMI medium pH 7.4 (Agilent, Waldbronn, Germany) and OCR and ECAR were measured as octuplicates for a period of 160 min using the Seahorse XFe96 Analyzer (Agilent, Waldbronn, Germany) and analyzed by Wave Software 2.6.3.8 (Agilent, Waldbronn, Germany). The relative values were calculated by relating the OCR or ECAR values obtained after 50 min to the values of the vehicle control (not stimulated).

On to `CC(/C=C/C(C)=C/[C@@H]1Cc2nc(cs2)CCCCC(=O)O[C@@H](C)C/C(C)=C/C=C\C(=O)O1)=C\CN(C)C` [DMDA, des-methyl des-amino pateamine A], for which the “Cytotoxicity in immune cell types” value in data set [1] is recorded as “less cytotoxic in comparison with PatA”. Besides, in data set [2], the “Energy metabolism: glycolysis (ECAR) and oxidative phosphorylation (OCR)” value was “had no effect on energy consumption”. For `CC(/C=C/C(C)=C/[C@@H]1Cc2nc(cs2)[C@@H](C)C[C@@H](N)CC(=O)O[C@@H](C)C/C(C)=C/C=C\C(=O)O1)=C\CN(C)C` [PatA, pateamine A], the “Energy metabolism: glycolysis (ECAR) and oxidative phosphorylation (OCR)” value in data set [2] is “reduced glycolysis and oxidative phosphorylation”.
